assay: Human HepG2 cell viability assay in 384 well format; assay type: toxicity, cell-based; design: dose 125 nL, time 70.5 hour; concentration not given beside the values; conditions: HepG2 cells, read-out: Inhibition

| SMILES | cytotoxicity at 70.5 h |
| --- | --- |
| CN1CCCN(C[C@@H]2CN(c3nc(C(N)=O)cs3)C[C@@H]2CO)CC1 | 4.88% |
| Cc1n[nH]c(C2CN(C(=O)CCc3ccsc3)CCO2)n1 (stereo unspecified) | -5.2% |
| O=C(c1ccccc1)N1C[C@@H]2CC[C@H](C1)N(S(=O)(=O)c1cccnc1)C2 | -7.07% |
| CC(=O)N1CCCCC12CCCN(Cc1ccco1)C2 (stereo unspecified) | -14.9% |
| Cc1ccc(-c2noc(CN3CCCC(Cn4cncn4)C3)n2)cc1 (stereo unspecified) | -1.78% |
| Cc1ccsc1CN1CC2(CCN(C(=O)C3CC3)CC2)CC1C(=O)O (stereo unspecified) | 10.8% |
| CSc1ccc(CN2CCCC3(CNC(=O)c4ccccc4O3)C2)cc1 (stereo unspecified) | 2.19% |
| Cc1n[nH]c(SCC(=O)N[C@@H](C)C(N)=O)n1 | 0.227% |
| Cn1ccnc1CN1CCOC(C)(C(=O)N2CCOCC2)C1 (stereo unspecified) | 1.29% |
| c1ccc2oc(N3CCCCC3Cn3cncn3)nc2c1 (stereo unspecified) | 25.6% |
| CN1C(=O)CC(c2ccccc2)C12CCN(CCO)CC2 (stereo unspecified) | 2.6% |
| N#Cc1cnc(NCc2cccc(C(=O)N3CCCC3)c2)c(Cl)c1 | -1.9% |
| Cc1cc(C)n(CCCN(C)c2cc(C3CC3)ncn2)n1 | -7.51% |
| O=C(NCCN1CCOCC1)c1cc(-c2ccc3c(c2)CCO3)n[nH]1 | 2% |
| CC(C)(C)CN(CCC#N)C(=O)c1cccc(CC#N)c1 | -3.08% |
| COCCNC(=O)[C@@H]1CN(Cc2sccc2C)C[C@H]2OCC[C@H]21 | -2.35% |
| O=C(Cc1ccsc1)N1CCCC(c2n[nH]c3nccnc23)C1 (stereo unspecified) | 18.6% |
| CNc1cncc(C2CCCN(S(C)(=O)=O)C2)n1 (stereo unspecified) | 0.632% |
| O=C(c1cncs1)N1CCOCC(Cc2ccccn2)C1 (stereo unspecified) | -2.59% |
| O=C1[C@H]2CN(Cc3ccc(F)cc3)C[C@H]2CN1CCN1CCCC1 | 12.5% |
| CCC1CNCc2cc3c(OC)ccc(OC)c3nc2O1 (stereo unspecified) | 12.3% |

| SMILES | cytotoxicity at 70.5 h |
| --- | --- |
| CCc1ncc(CN2C[C@@H]3C[C@@H](O)CN3C[C@@H]2Cc2ccccc2)cn1 | -5.41% |
| COc1ccc(C(=O)Nc2c(C)nc3cccc(C)n3c2=O)cc1 | -17.1% |
| Cc1nc(CN(C)CC2CCCN2c2cccnn2)oc1C (stereo unspecified) | -1.57% |
| CCOc1ccc(C(=O)N(Cc2cnn(C)c2)C(C)C)cc1 | -1.86% |
| CN(C[C@H]1CN2CC[C@H]1C[C@@H]2CNC(=O)c1ccco1)c1ccccc1 | -0.576% |
| CNc1ncc(CN(C)Cc2cc(O)c3cc(C)cc(C)c3n2)cn1 | -15.9% |
| COc1ccc(N2CCC(NS(=O)(=O)N(C)C(C)C)CC2)cc1 | 7.03% |
| Cc1nc(C)n(CC2CCCN(CCOc3ccccc3F)C2)n1 (stereo unspecified) | 28.7% |
| O=c1[nH]nc(CCCN2CCOCC2)n1Cc1cccc(F)c1 | -2.64% |
| CCSCCC(=O)NC1CCN(C(C)c2ccccc2)CC1 (stereo unspecified) | -10.7% |
| CCn1cc(NC(=O)NCc2ccc3c(c2)OCCO3)cn1 | -13% |
| Cc1ncc(CO)c(CN2CCCC2c2nc3c(C)cccc3[nH]2)c1O (stereo unspecified) | -0.268% |
| Cc1nccn1C1CCCN(C(=O)COCC(F)(F)F)C1 (stereo unspecified) | -7.9% |
| CCN(CC)C1CCN(C(=O)NCc2cccc(NC(C)=O)c2)C1 (stereo unspecified) | -6.18% |
| CCc1nc(N)sc1C(=O)N1CCC(c2cc(O)nc(C)n2)CC1 | 20.6% |
| O=C(Nc1cccnc1)[C@H]1CO[C@H]2CCN(c3ncc(F)cn3)C[C@H]2C1 | 4.85% |
| CCOc1ccc(-c2ccc3c(c2)OCO3)cc1C(N)=O | 5.58% |
| COc1cccc(N2CC3(CCN(c4cc(OC)ncn4)C3)CC2=O)c1 (stereo unspecified) | 7.12% |
| Fc1cnc(N2CCOCC3(CCCN(c4cnccn4)C3)C2)nc1 (stereo unspecified) | -3.83% |
| Cc1cnc(N2CCCC3(CCOCC3)C2)nc1 | -1.55% |
| O=C(CSc1ccc2c(c1)OCCO2)NS(=O)(=O)c1cccnc1 | -3.19% |

| SMILES | cytotoxicity at 70.5 h |
| --- | --- |
| CCCN1CCC(Cc2nn3c(C(C)C)nnc3s2)CC1 | 10.4% |
| COc1ccc(Br)c(C(=O)N2CCC(c3n[nH]c(C4CC4)n3)CC2)c1 | 3.76% |
| CCOCCN1CCN(Cc2cccc(C(=O)N(C)C)c2)CC1CC (stereo unspecified) | -6.73% |
| Cc1noc(C)c1CN1CCO[C@H]2CN(Cc3cccc(F)c3)C[C@H]21 | -13.7% |
| CCN(CC)c1ncnc2c1CCN(CC1CCOCC1)CC2 | -16.3% |
| CN(Cc1ccc(F)cc1)C(=O)NCc1nnc2n1CCCCC2 | 33.6% |
| CN(C)Cc1noc2c1CN(Cc1ccsc1)CC2 | -5.59% |
| N#Cc1cccc(NC(=O)N[C@H](CO)Cc2ccc(O)cc2)c1 | -9.73% |
| CN(C)c1ccc(CC2CCN(c3cnccn3)CC2)nn1 | -7.84% |
| CC(C)(NCCOc1ccc(CC#N)cc1)c1nccs1 | -2.87% |
| O=c1ccn([C@H]2CCN(Cc3ncc[nH]3)CC[C@@H]2O)c(=O)[nH]1 | -4.85% |
| Cc1cc(C(=O)NC2(C#N)CCCC2)c(C)n1-c1cccnc1 | -6.05% |
| Cc1cc(Cl)cc(C)c1CNC1CCN(CC(=O)N(C)C)CC1 | -2.67% |
| COc1ccsc1C(=O)N1CCCC(n2nc(C)cc2C)C1 (stereo unspecified) | -3.66% |
| Cc1c(NCC(C)(C)C)cccc1C(=O)NCc1ncnn1C | 14.6% |
| CN(C)CCn1c(=O)oc2ccc(NC(=O)CC(C)(C)C)cc21 | -6.79% |
| Cc1cccnc1CN(C)C(C(=O)O)c1ccc(-c2ccn[nH]2)cc1 (stereo unspecified) | -3.62% |
| CCn1nc2c(cc1=O)CN(c1nc3ccccc3s1)CC2 | 16.9% |
| COCCN1CCC(Cc2cncc(-c3ccc(C(=O)O)cc3)n2)CC1 | 8.54% |
| COc1ccc(C2CNCCN2C(=O)c2cccc3cccnc23)cc1 (stereo unspecified) | 12.4% |
| Cc1nc(C)n(CC2CCCN(CCc3ccccn3)C2)n1 (stereo unspecified) | 28.4% |

| SMILES | cytotoxicity at 70.5 h |
| --- | --- |
| CC(C)N(C)Cc1nnc2n1CCCN(c1ncccn1)C2 | -2.54% |
| CCCOC1CCCN(C(=O)c2cc(CN(CC)CC)c(CC)o2)C1 (stereo unspecified) | 17.7% |
| O=C(O)c1cnc2c(cnn2C2CCCC2)c1 | -0.534% |
| O=C(NC[C@H]1OC[C@@H]2CN(Cc3ccco3)CC[C@@H]21)c1cccnc1 | 6.02% |
| c1cnnc(N2CCCC(NCc3nc(-c4cccs4)no3)C2)c1 (stereo unspecified) | -6.61% |
| CC(=O)N1CCC(NC(=O)N2CCN(c3cnccn3)CC2)CC1 | 1.14% |
| Cn1cc(CC(=O)N2CCCC(n3cncn3)C2)cn1 (stereo unspecified) | -3.54% |
| Cc1cc(C)n(CC2CCCCN2CCC(=O)Nc2cc(C)on2)n1 (stereo unspecified) | -10.3% |
| Cc1noc(C)c1CN1CCOC2(CCCN(c3ccccn3)C2)C1 (stereo unspecified) | -8.65% |
| CC(C)c1nccn1C1CCCN(C(=O)C2=NN(C)C(=O)CC2)C1 (stereo unspecified) | -10.1% |
| Cc1ncc(CC(=O)N2CCCCC2CCN2CCCC2)c(=O)[nH]1 (stereo unspecified) | -3.87% |
| O=C(Cc1ccsc1)N1CCOC(c2nc(-c3ncccn3)no2)C1 (stereo unspecified) | -2.86% |
| CN(C)c1ccc(C(=O)Nc2ccn(CCc3ccncc3)n2)cn1 | 0.589% |
| Cn1c(=O)c2sccc2n(Cc2ccccc2)c1=O | 2.6% |
| Cc1ccc(C2CSCCN2C(=O)C2=CCCC2)o1 (stereo unspecified) | -6.86% |
| N#CCc1ccc(NC(=O)CNc2ccc(Br)cc2F)cc1 | -7.86% |
| CCOc1ccccc1-n1c(-c2cn(CC)nc2C)n[nH]c1=O | -4.81% |
| CC(C)NC(=O)N1CCC2(CC(=O)N(c3cccc(F)c3)C2)C1 (stereo unspecified) | -12.8% |
